Measured values reported in BindingDB's records for patent US11866405 (Astrazeneca, 2024).

Biological target: T1, Interleukin-1 receptor-associated kinase 4 (Homo sapiens, UniProt Q9NWZ3)
T1 sequence (Q9NWZ3 whole entry): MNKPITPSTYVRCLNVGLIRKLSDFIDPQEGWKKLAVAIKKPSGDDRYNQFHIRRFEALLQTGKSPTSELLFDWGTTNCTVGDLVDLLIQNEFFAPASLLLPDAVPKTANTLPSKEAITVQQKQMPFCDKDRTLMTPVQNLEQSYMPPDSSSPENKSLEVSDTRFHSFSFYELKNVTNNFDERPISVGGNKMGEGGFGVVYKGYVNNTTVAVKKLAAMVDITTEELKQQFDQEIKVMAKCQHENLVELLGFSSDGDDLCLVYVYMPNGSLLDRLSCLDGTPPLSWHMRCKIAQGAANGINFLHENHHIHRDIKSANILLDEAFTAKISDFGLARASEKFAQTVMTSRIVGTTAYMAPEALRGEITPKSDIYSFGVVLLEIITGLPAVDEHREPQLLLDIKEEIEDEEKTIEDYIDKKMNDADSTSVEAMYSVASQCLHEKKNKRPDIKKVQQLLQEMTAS
Assay: Potency of IRAK4 Inhibitor Compounds in IRAK4 Enzyme Assay
Protocol: The inhibitory activity of compounds against IRAK4 were determined in an enzymatic assay using mass spectrometry readout. Ten point half-log compound concentration response curves, with a top concentration of 1 μM or 10 μM, were generated from 10 mM stocks of compound solubilized in DMSO using an Echo 655 (Labcyte Inc) and added to 384 well assay plates (Greiner #781280). To the assay plates, 10 μL of human recombinant IRAK4 protein (Life Technologies #PV4002) diluted to a final concentration of 0.2 nM in assay buffer (50 mM Tris-HCl pH 7.4, 10 mM MgCl, 5 mM glutathione, 0.01% BSA, 3 mM ATP) was added. The enzyme was incubated with the compounds at room temperature for 15 minutes before a peptide substrate ([…], Innovagen custom synthesis, 10 mM in DMSO) was added to each well to a final concentration of 10 μM using an Echo 655 (Labcyte Inc). After two hours at room temperature, the reaction was stopped with 90 μL of 0.4% formic acid (Merck #33015). The unphosphorylated and phosphorylated peptide were measured by LC-MS/MS on a Waters TQ-S mass spectrometer. Peaks were integrated using the TargetLynx software and the ratios between phosphorylated and unphosphorylated peptides were calculated.

Row | Compound | IC50
1 | C[C@@]1(O)CCC[C@H](n2cc3cc(C(=O)Nc4cnn5cccnc45)c(OC4CC4)cc3n2)C1 (relative stereo) [US11866405, Example 54] | 600 pM
2 | COc1cc2nn([C@H]3CCC[C@H](O)[C@@H]3C)cc2cc1C(=O)Nc1cnc2cccnn12 (relative stereo) [US11866405, Example 106] | 600 pM
3 | COc1cc2nn([C@H]3CC[C@H](N(C)C(=O)[C@@H]4CC[C@H](O)C4)CC3)cc2cc1C(=O)Nc1cnn2cccnc12 (relative stereo) [US11866405, Example 115] | 800 pM
4 | COc1cc2nn([C@@H]3CC[C@]4(CCC(=O)N4C)C[C@H]3C)cc2cc1C(=O)Nc1cnc2cccnn12 (relative stereo; form 2) [US11866405, Example 122] | 700 pM
5 | COc1cc2nn([C@H]3CC[C@H](O)C[C@@H]3C)cc2cc1C(=O)Nc1cnn2cccnc12 [US11866405, Example 40] | 6300 pM
6 | C[C@H]1C[C@@H](O)CC[C@@H]1n1cc2cc(C(=O)Nc3cnn4cccnc34)c(OC3CC3)cc2n1 [US11866405, Example 45] | 1400 pM
7 | COc1cc2nn([C@H]3CC[C@H](N(C)C(=O)[C@H](C)O)CC3)cc2cc1C(=O)Nc1cnc2cccnn12 [US11866405, Example 94] | 300 pM
